Data on one compound can be found in patent publication US9815815B2, “Non-selective kinase inhibitors” (GILEAD SCIENCES, INC., priority 2013, dated 2017).

One data set concerns ERK1/2. Briefly: NanoPro immunoassay pERK1/2 in lung homogenates, MCT+PN model. The data set is classed as in vivo, rat. Conditions: D4 and D8 groups compared to vehicle. The text has this:
(§1) Histology and morphometric analysis. At the end of the study, the heart and lungs were removed from ventilated animals under general anesthesia. Heparinized saline was infused under pressure through the main pulmonary artery. The right upper lobe was immediately tied off and placed in liquid nitrogen for Western blot and NanoPro 100 ™ assay analysis. The heart was removed, and the RV free wall, interventricular septum and LV free wall dissected and weighed. Buffered formalin (10%) was infused under pressure both through the pulmonary artery and the trachea. Morphometric analysis was performed on H&E stained formalin fixed tissue sectioned at 8 μm. The media area and lumen area of pulmonary arterioles were measured with Image J software by a technician blinded to treatment group. Measurements were made on 20 pulmonary arterioles per section. The ratio of the lumen area to the total media area was determined This ratio normalizes the variation in total pulmonary arteriole area. […]
(§2) NanoPro Immunoassay™. Relative differences in phosphorylated ERK1/2 and STAT isoforms were measured with a NanoPro100™ immunoassay system (Protein Simple/Cell Biosciences, CA). […]

A short description of data set [1]: Pharmacokinetic study, lung and plasma levels after inhalation or IV. Format: in vivo, rat. As to the method: Pharmacokinetic studies. PK10453 (Structure 2) was administered intravenously or by inhalation to animals, which were then euthanized at time 0, 10, 20, and 60 min (n=3 each time point). Blood samples were taken by cardiac puncture, and the lungs excised. The lungs were homogenized and PK10453 (Structure 2) extracted with a 1:3 mixture of acetonitrile:methanol. Similarly, plasma was extracted with a 1:3 mixture of acetonitrile:methanol. Drug was assayed by LC MS/MS (PharmOptima Inc., Portage Mich.). First order exponential curves were fit to the data with Excel. AUC was determined with the trapezoidal method of integration.
For the pharmacokinetic study, the concentration of PK10453 (Structure 2) in lung when administered by inhalation was compared to the concentration achieved with IV administration. As described in Morén “Aerosols in medicine : principles, diagnosis, and therapy.” Amsterdam; New York: Elsevier. (1993) and Phalen et al., “Inhalation exposure methodology.” Environ Health Perspect 56:23-34 (1984)), it is possible to estimate the pharmacokinetic advantage of inhalation relative to intravenous administration, Rd, by comparing the AUC of a plot of the drug concentration as a function of time following respiratory and IV administration: Rd=[(AUClung/AUCplasma)respiratory]/[(AUClung/AUCplasma)IV]

Data set [2] relates to PDGFAA stimulated phosphorylation of ERK1 and ERK2. Briefly: PDGFAA stimulated phosphorylation of ERK1 and ERK2 in human fetal lung fibroblasts. The data set is classed as cell-based. Conditions: 1 uM.
The subject of the next data set is rat MCT model. Conditions: 8 min inhalation 3x/day, two weeks.
The test system of a further data set is STAT3. Briefly: NanoPro immunoassay pSTAT3/STAT3 in lung extracts, MCT+PN model. The data set is classed as in vivo, rat. Conditions: D4 and D8 groups compared to vehicle.
From the text: as §1, §2

Another data set concerns the target PDGFRalpha (Homo sapiens, UniProt P16234). Kind of data set: biochemical. The method, then: (§3) In vitro kinase assay. A Z-lyte kinase assay was performed to determine the inhibition of PDGFRalpha and PDGFRbeta mediated phosphorylation by PK10453 (Structure 2). Ten point titration curves were modeled to calculate the IC50 (Invitrogen Select Screen®).
The next data set deals with PDGFRbeta (Homo sapiens, UniProt P09619). Briefly: biochemical. As to the method:
as §3

A short description of data set [3]: Systemic blood pressure study in ambulatory MCT treated rats. The data set is classed as in vivo, rat. Conditions: inhalation. As to the method:
Systemic blood pressure study. The effect of PK10453 (Structure 2) on systemic BP was studied in ambulatory MCT treated rats with DSI PAC40 transmitters implanted in the descending aorta. […] Blood pressure was recorded before each morning dose.

Data set [4] deals with rat MCT+PN model. Kind of data set: RV pressure, PV loops, RV hypertrophy and morphometry in the rat MCT+PN model. The data set is classed as in vivo. Conditions: for ESV: PV loop, second part of Table 3. As to the method:
Measurement of PV loops. In a separate cohort of animals, the MCT+PN model was developed as described above, and PK10453 (Structure 2) was then administered for 4 or 8 min three times a day to the drug treated group. The vehicle control group underwent 4 min exposures three times a day. Pressure Volume (PV) loops were obtained with an admittance system (Scisense, Inc.) after 14 days of treatment, while rats were under general anesthesia with isoflurane and 100% FiO2. Also, or in the alternative, RV pressures were obtained in each group after 14 days of treatment. In a subset of each group, pressure Volume (PV) loops were obtained with an admittance system (high fidelity catheter FTE1918B, Scisense, Inc.) after 14 days of treatment. After induction of general anesthesia and intubation via tracheostomy, the rats were placed on a pressure controlled ventilator (TOPOVENT). General anesthesia consisted of isoflurane and 100% FiO2 with peak inspiratory pressure set at 18 cm, and PEEP 5 cm H2O. A left thoracotomy was performed with admittance catheter in the RV via the RV outflow tract.
as §1

The subject of data set [5] is PDGFBB stimulated AKT phosphorylation. Kind of data set: In cell Western (ICW), PDGFBB stimulated AKT phosphorylation in human fetal lung fibroblasts. Format: cell-based. Conditions: comparison in words. As to the method: In cell Western (ICW). […] HLFs were maintained in subculture at no more than 6 passages in DMEM with 5% FBS and 4 mM Glutamax at 37° C., 5% CO2. HLFs were plated and grown to 70-80% confluence in 96 well plates then serum-starved for 48 hours. […] Antibodies were detected using IRDye 680LT goat anti-mouse IgG and IRDye 800W goat a-rabbit IgG conjugated antibodies. After washing, the signal was quantified using an Odyssey Infrared Imaging System (LI-COR). Phosphoprotein signal (800 nm) was normalized to total protein signal (700 nm) acquired from each well and experimental duplicates on same plate were averaged and reported.

Data set [6] has as its system rat MCT+PN model. Briefly: Telemetry study of PA pressure in the rat MCT+PN model. The data set is classed as in vivo. Conditions: by inhalation. The method, then: Efficacy study in the rat MCT+PN model. Pneumonectomy and implantation of a TRM53P telemetry monitor in the pulmonary artery (Telemetry Research, New Zealand and ADlnstruments, Colorado) was carried out in rats. Two weeks after MCT, PK10453 (Structure 2) was administered three times daily for 1 week. […] Sampling of PA pressure was performed 5 min before each morning dose in ambulatory animals in room air (estimated atmospheric pressure 716 mm Hg based on elevation of animal facility). […] Telemetry data was obtained for 10 min daily before each morning dose for this protocol.

PDGFRalpha, sequence (P16234 24-1089): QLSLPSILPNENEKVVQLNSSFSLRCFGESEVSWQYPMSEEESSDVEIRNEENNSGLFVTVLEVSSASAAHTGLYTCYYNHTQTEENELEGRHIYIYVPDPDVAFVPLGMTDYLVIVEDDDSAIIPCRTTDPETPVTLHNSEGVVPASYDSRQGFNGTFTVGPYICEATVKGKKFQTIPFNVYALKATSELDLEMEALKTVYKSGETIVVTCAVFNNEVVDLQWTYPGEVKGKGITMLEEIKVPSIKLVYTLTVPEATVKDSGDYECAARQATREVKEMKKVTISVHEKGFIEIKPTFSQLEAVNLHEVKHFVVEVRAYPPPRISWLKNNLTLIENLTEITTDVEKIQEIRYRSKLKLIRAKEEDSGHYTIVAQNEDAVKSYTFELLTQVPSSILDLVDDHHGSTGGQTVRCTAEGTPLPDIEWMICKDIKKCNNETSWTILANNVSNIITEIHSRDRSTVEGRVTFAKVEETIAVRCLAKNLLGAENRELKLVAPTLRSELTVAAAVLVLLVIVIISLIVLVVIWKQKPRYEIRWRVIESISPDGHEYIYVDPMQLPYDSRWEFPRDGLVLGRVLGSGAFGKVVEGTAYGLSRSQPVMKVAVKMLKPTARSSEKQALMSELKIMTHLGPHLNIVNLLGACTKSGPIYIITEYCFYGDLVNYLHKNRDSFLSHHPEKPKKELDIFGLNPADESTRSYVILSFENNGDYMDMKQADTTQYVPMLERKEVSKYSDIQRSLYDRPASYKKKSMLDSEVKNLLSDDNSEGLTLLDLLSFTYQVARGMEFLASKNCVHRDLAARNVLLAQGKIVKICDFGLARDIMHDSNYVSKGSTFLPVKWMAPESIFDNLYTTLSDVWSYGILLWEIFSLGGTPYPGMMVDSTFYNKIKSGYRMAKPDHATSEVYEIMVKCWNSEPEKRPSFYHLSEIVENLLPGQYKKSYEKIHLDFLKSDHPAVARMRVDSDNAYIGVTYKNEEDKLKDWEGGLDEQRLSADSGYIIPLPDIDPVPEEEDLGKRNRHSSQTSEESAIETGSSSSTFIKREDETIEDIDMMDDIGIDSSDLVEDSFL
PDGFRbeta, sequence (P09619 33-1106): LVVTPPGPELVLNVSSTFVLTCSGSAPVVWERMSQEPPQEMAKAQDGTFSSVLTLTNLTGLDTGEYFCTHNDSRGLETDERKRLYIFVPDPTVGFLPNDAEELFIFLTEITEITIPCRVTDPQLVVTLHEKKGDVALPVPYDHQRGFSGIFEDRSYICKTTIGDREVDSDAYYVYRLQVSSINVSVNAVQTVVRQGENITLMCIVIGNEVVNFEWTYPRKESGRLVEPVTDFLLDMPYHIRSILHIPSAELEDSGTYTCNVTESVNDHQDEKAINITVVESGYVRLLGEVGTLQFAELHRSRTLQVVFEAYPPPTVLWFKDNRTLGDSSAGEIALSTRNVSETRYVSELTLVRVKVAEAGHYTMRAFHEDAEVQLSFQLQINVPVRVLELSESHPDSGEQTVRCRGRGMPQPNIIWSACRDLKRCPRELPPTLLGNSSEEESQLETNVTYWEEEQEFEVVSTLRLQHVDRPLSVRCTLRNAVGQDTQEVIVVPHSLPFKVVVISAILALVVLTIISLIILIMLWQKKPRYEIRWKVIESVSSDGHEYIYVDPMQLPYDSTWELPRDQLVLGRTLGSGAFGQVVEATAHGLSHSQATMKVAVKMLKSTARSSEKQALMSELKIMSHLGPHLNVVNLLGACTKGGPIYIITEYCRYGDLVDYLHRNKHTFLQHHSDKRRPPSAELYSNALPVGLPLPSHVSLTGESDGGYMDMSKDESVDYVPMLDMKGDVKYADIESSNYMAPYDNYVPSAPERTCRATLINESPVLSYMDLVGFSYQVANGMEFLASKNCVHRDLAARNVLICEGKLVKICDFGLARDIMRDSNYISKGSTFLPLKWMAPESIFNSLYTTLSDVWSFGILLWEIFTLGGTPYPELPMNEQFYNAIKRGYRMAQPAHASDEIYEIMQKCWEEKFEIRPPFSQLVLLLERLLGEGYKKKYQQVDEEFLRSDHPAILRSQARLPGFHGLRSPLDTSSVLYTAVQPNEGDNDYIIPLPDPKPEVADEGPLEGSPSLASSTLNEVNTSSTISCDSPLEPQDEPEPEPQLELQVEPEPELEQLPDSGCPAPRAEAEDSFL
Protocol for rat MCT model: At the end of the study RVSP pressure was measured; lung and heart fixed in formalin. For measurement of RVSP animals were sedated with isoflurane, intubated via a tracheostomy, and ventilated with a TOPOVENT pressure regulated ventilator (peak inspiratory pressure 18 cm H2O, PEEP 5 cm). After sternotomy, a Scisense high fidelity catheter inserted via the RV apex.
Histology and morphometric analysis. At the end of the study, the heart and lungs were removed from ventilated animals under general anesthesia. Heparinized saline was infused under pressure through the main pulmonary artery. […] The heart was removed, and the RV free wall, interventricular septum and LV free wall dissected and weighed. Buffered formalin (10%) was infused under pressure both through the pulmonary artery and the trachea. Morphometric analysis was performed on H&E stained formalin fixed tissue sectioned at 8 μm. The media area and lumen area of pulmonary arterioles were measured with Image J software by a technician blinded to treatment group. Measurements were made on 20 pulmonary arterioles per section. The ratio of the lumen area to the total media area was determined This ratio normalizes the variation in total pulmonary arteriole area. […] Briefly, pre-capillary arterioles were assigned grade 0 for no evidence of neointimal lesions, grade 1 for less than 50% luminal occlusion, and grade 2 for greater than 50% occlusion.

Usually IC50 stands for the concentration that gives 50% inhibition. A lower IC50 goes with higher potency. As to `COc1cc(-c2cncc(N[C@@H](C)c3cccc(NC(=O)c4cncc(C)c4)c3)n2)ccc1O` [PK10453, (S)-N-(3-(1-((6-(4-hydroxy-3-methoxyphenyl)pyrazin-2yl)amino)ethyl)phenyl)-5-methylnicotinamide], the “pERK1/ERK1 in lung homogenates” value in the data set with ERK1/2 is recorded as “significant reductions”. Moreover, in the data set with ERK1/2, the “ppERK1/ERK1 in lung homogenates” value is recorded as “significant reductions”. Also, the “Rd = [(AUClung/AUCplasma)respiratory]/[(AUClung/AUCplasma)IV]” value in data set [1] (inhalation relative to IV) was determined as 44.6. For the same compound, in data set [1] (lung/plasma AUC ratio), the “advantage of inhaled compared to IV administration” value is recorded as 45 fold. The “decreasing PDGF AA stimulated ppERK1 and ppERK2 formation” value in data set [2] is “equally effective”. The End systolic volume in the data set with rat MCT model was 99.5 ± 10 µL. For the same compound, in the data set with STAT3, the pSTAT3/STAT3 ratio result is listed as “significant reduction”. Also, the IC50 against PDGFRalpha is 35 nM; on PDGFRbeta, 10.1 nM. In addition, the “effect on systemic BP, in words” value in [3] was “did not have an adverse effect”. The same compound returned an RV systolic pressure with rat MCT+PN model [4] (D8: 8 min 3x/day, 14 days) of 43.0±3.0 mm Hg. In addition, the ESV in the data set with rat MCT+PN model [4] (D4, mean) was found to be 408.95 µL; in the data set with rat MCT+PN model [4] (D8, mean), 488.68 µL. Also, the “IC50 for inhibiting PDGFBB stimulated AKT phosphorylation, compared to imatinib” value in data set [5] is “lower IC50 concentrations compared to imatinib”. Besides, in the data set with rat MCT+PN model [6], the “efficacy in the MCT+PN model, in words” value is reported as “prevented the progression of PAH”.
